Measurements: patent US8486996B2, “Aroylfuranes and aroylthiophenes” (Basilea Pharmaceutica AG, priority 2006, dated 2013)
Where two headings read alike, the source gives them in different places.

Columns and labels:
[1] = Hoechst 33342 nuclear staining (48 h read-out); type: cell-based
How it was run: (§1)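 Adherent cells pre-spread 24 h before dosing, suspension cells dosed at seeding; compounds at 0.001 μM-10 μM final, 48 h at culture conditions. Hoechst 33342 (2-5 μg/ml) added for 30 min, then fluorescence microscopy scoring of apoptotic nuclear fraction and apoptosis-specific morphology, reported as scores A-D.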

tumor cells [2] = experiment: Hoechst 33342 nuclear staining (48 h read-out); type: cell-based
How it was run: as §1

[3] = Mitochondrial membrane potential, JC-1 (read-out 48 h); type: cell-based; conditions: PBL, JC-1, 48 h
How it was run: (§2)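 Tumor cells were treated with test compounds (adherent cells after 24 h of attachment, suspension cells immediately), medium holding up to 5% DMSO. After 48 h, JC-1 (2-5 μg/ml in added medium) was applied for 30 min. Fluorescence microscopy (FITC/TRITC filters) scored the fraction of cells with dissipated mitochondrial membrane potential as categories A-D.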

tumor cells [4] = experiment: as above; type: cell-based; conditions: JC-1, 48 h
How it was run: as §2

HeLa = experiment: Colony Forming Units (read-out 6 days), HeLa; type: cell-based, human; conditions: colonies containing more than 30 cells, read-out: Colony Forming Units, score based on IC50, HeLa
Protocol: (§3) Appropriate numbers of cells (100-150 cells, dependent on the cell type) are being seeded out in 1 ml complete medium into 6-well plates and allowed to attach for 48 h. The compounds are added after 48 h in 500 μl solution. The concentrations are in the range of 0.001 μM-3 μM. Control plates receive the same volume of medium containing the appropriate amount of DMSO. The plates are incubated for 5-7 days at cell culture conditions and subsequently scored for growth of colonies (containing more than 30 cells) by using a microscope.

H460 = experiment: Colony Forming Units (read-out 6 days), H460; type: cell-based, human; conditions: colonies containing more than 30 cells, read-out: Colony Forming Units, score based on IC50, H460
Protocol: as §3

[5] = MTS proliferation assay (72 h read-out); type: cell-based; conditions: MRC5 cells
How it was run: (§4)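 Viability was read by MTS absorbance at 492 nm after 3 h with reagent. Before that, cells plated a day earlier at 1.5×10^3–10^4 per well had been incubated with test compound at final concentrations of 0.001–10 μM for 72 h; activity is given as category scores A–D.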

tumor cells [6] = experiment: MTS proliferation assay (72 h read-out); type: cell-based
How it was run: as §4

[7] = MRC5 cells, read-out: Hoechst 33342 nuclear staining EC50, MRC5
[8] = PBL, read-out: Hoechst 33342 nuclear staining EC50, PBL
[9] = HeLa cells, read-out: Hoechst 33342 nuclear staining EC50, HeLa
[10] = Jily cells, read-out: Hoechst 33342 nuclear staining EC50, Jily
[11] = Jurkat cells, read-out: Hoechst 33342 nuclear staining EC50, Jurkat
[12] = HeLa cells, read-out: Mitochondrial membrane potential (read-out 48 h) HeLa
[13] = Jily cells, read-out: Mitochondrial membrane potential (read-out 48 h) Jily
[14] = Jurkat cells, read-out: Mitochondrial membrane potential (read-out 48 h) Jurkat
[15] = MCF7 cells, read-out: Mitochondrial membrane potential (read-out 48 h) MCF7
[16] = Homo sapiens, MRC5 cells, read-out: Hoechst 33342 nuclear staining EC50, MRC5
[17] = Homo sapiens, HeLa cells, read-out: Hoechst 33342 nuclear staining EC50, HeLa
[18] = Homo sapiens, Jurkat cells, read-out: Hoechst 33342 nuclear staining EC50, Jurkat
[19] = Homo sapiens, HT-1080, HT1080 cells, read-out: MTS proliferation assay IC50, HT1080
[20] = Homo sapiens, HeLa cells, read-out: MTS proliferation assay IC50, HeLa
[21] = Homo sapiens, Jurkat cells, read-out: MTS proliferation assay IC50, Jurkat
[22] = Jily cells, read-out: MTS proliferation assay IC50, Jily
[23] = Homo sapiens, HeLa cells, read-out: Mitochondrial membrane potential (read-out 48 h) HeLa
[24] = Homo sapiens, Jurkat cells, read-out: Mitochondrial membrane potential (read-out 48 h) Jurkat
[25] = Homo sapiens, MCF7 cells, read-out: Mitochondrial membrane potential (read-out 48 h) MCF7
[26] = HT1080 cells, read-out: MTS proliferation assay IC50, HT1080
[27] = HeLa cells, read-out: MTS proliferation assay IC50, HeLa
[28] = Jurkat cells, read-out: MTS proliferation assay IC50, Jurkat

EC50 [1, 8] [µM]	EC50 (tumor cells [2]; [9]) [µM]	EC50 (tumor cells [2]; [10]) [µM]	EC50 (tumor cells [2]; [11]) [µM]	EC50 [3] [µM]	EC50 (tumor cells [4]; [12]) [µM]	EC50 (tumor cells [4]; [13]) [µM]	EC50 (tumor cells [4]; [14]) [µM]	EC50 (tumor cells [4]; [15]) [µM]	EC50 (tumor cells [2]; [17]) [µM]	EC50 (tumor cells [2]; [18]) [µM]	IC50 (tumor cells [6]; [19]) [µM]	IC50 (tumor cells [6]; [20]) [µM]	IC50 (tumor cells [6]; [21]) [µM]	IC50 (tumor cells [6]; [22]) [µM]	EC50 (tumor cells [4]; [23]) [µM]	EC50 (tumor cells [4]; [24]) [µM]	Structure (SMILES)	EC50 [1, 7] [µM]	EC50 [1, 16] [µM]	IC50 ([5]; Homo sapiens) [µM]	other results
> 1	0.1 to 1	0.1 to 1	0.1 to 1	> 1	0.01 to 0.1	0.01 to 0.1	0.01 to 0.1	0.01 to 0.1									COc1ccc2oc(C(=O)c3cc(F)ccc3N3CCCCC3)cc2c1 [Example 96]	0.1 to 1			IC50 (HeLa): 0.01 to 0.1 µM; IC50 (H460): 0.01 to 0.1 µM
> 1		0.1 to 1		> 1		0.1 to 1			0.1 to 1	0.1 to 1	> 1	0.1 to 1	0.1 to 1	0.1 to 1	> 1	0.1 to 1	CCOc1ccc(F)cc1C(=O)c1sc2ncccc2c1N [Example 113, 3-Amino-2-(2′-ethoxy-5-fluorobenzoyl)-thieno[2,3-b]pyridine]		> 1	> 1	EC50 (tumor cells [4]; [25]): > 1 µM
> 1		< 0.01		> 1					0.01 to 0.1	< 0.01	0.01 to 0.1	0.01 to 0.1	0.01 to 0.1	0.01 to 0.1	0.01 to 0.1	< 0.01	CCOc1ccc(F)cc1C(=O)COc1ccc(Cl)cc1C#N [Example 143, ω-(4-Chloro-2-cyanophenoxy)-2-ethoxy-5-fluoroacetophenone]		< 0.01	0.01 to 0.1	EC50 (tumor cells [4]; [25]): 0.01 to 0.1 µM
> 1	> 1	0.1 to 1	0.1 to 1	0.1 to 1	> 1	0.1 to 1	0.1 to 1	> 1						0.1 to 1			COc1ccccc1C(=O)c1oc2ccc(Cl)cc2c1N [Ref B, reference compound]	> 1			IC50 [5]: 0.1 to 1 µM; IC50 (tumor cells [6]; [26]): 0.1 to 1 µM; IC50 (tumor cells [6]; [27]): 0.1 to 1 µM; IC50 (tumor cells [6]; [28]): 0.1 to 1 µM
> 1	> 1	> 1	> 1	> 1	> 1	> 1	> 1	> 1						> 1			COc1ccc(OC)c(C(=O)c2oc3ccc(Cl)cc3c2O)c1 [Ref C, reference compound]	> 1			IC50 [5]: > 1 µM; IC50 (tumor cells [6]; [26]): > 1 µM; IC50 (tumor cells [6]; [27]): > 1 µM; IC50 (tumor cells [6]; [28]): > 1 µM
> 1	> 1	0.1 to 1	0.1 to 1	> 1	> 1		0.1 to 1	> 1						0.1 to 1			COc1ccc(OC)c(C(=O)COc2ccc(Cl)cc2C#N)c1 [Ref D, reference compound]	> 1			IC50 [5]: > 1 µM; IC50 (tumor cells [6]; [26]): > 1 µM; IC50 (tumor cells [6]; [27]): 0.1 to 1 µM; IC50 (tumor cells [6]; [28]): 0.1 to 1 µM
> 1		> 1		> 1		> 1			> 1	> 1	> 1	> 1	> 1	> 1	> 1	> 1	COc1ccc(OC)c(C(=O)c2oc3ccccc3c2O)c1 [Reference Example A, 2-(2,5-dimethoxybenzoyl)-3-hydroxybenzofuran, reference compound]		> 1	> 1	EC50 (tumor cells [4]; [25]): > 1 µM
